From patent US20200315232A1, “Method to Improve Dispersibility of a Material Having Low Solubility in Water” (PepsiCo, Inc., priority 2012, published 2020)
Residues, ends and D or L forms follow the SMILES beside them.

Tests used:
[1] = cited from earlier work; for Sweetness potency: commonly accepted potency figures, weight basis
[2] = cited from earlier work
[3] = assay type: physicochemical
Text: Traditionally, the beverage industry makes certain carbonated beverages by first making concentrated syrup and then diluting the syrup with water at the time and place of making the beverage. The dilution ratio in such beverages is often 1:5; meaning one part syrup is mixed with five parts water. The beverage often is carbonated at the time of being bottled or otherwise packaged. For any ingredient to be incorporated into such a 1:5 syrup, the solubility of the ingredient in the syrup must be at least six times higher than its desired concentration in the finished beverage. […] It would be advantageous, therefore, to develop improved methods of incorporating rebaudioside D into an aqueous solution.

SMILES	Sweetness potency [1]	Water solubility (in words) [2]	also measured
C=C1C[C@@]23CC[C@H]4[C@@](C)(CCC[C@@]4(C)C(=O)O[C@@H]4O[C@H](CO)[C@@H](O)[C@H](O)[C@H]4O)[C@@H]2CC[C@]1(O[C@@H]1O[C@H](CO)[C@@H](O)[C@H](O[C@@H]2O[C@H](CO)[C@@H](O)[C@H](O)[C@H]2O)[C@H]1O[C@@H]1O[C@H](CO)[C@@H](O)[C@H](O)[C@H]1O)C3 [Rebaudioside A, rebaudioside A]	150-300 times as sweet as sugar	more soluble than stevioside	Sweetness relative to sucrose ([1]; background statement): approximately 200 times sweeter than sucrose; Solubility in aqueous solution ([2]; room temperature): at least 3000 ppm
COc1ccc(CCC(=O)c2c(O)cc(O[C@@H]3O[C@H](CO)[C@@H](O)[C@H](O)[C@H]3O[C@@H]3O[C@@H](C)[C@H](O)[C@@H](O)[C@H]3O)cc2O)cc1O [Neohesperidin dihydrochalcone]	300 times as sweet as sugar		
C[C@H](CC[C@@H](O[C@@H]1O[C@H](CO[C@@H]2O[C@H](CO)[C@@H](O)[C@H](O)[C@H]2O)[C@@H](O)[C@H](O)[C@H]1O[C@@H]1O[C@H](CO)[C@@H](O)[C@H](O)[C@H]1O)C(C)(C)O)[C@H]1CC[C@@]2(C)[C@@H]3CC=C4[C@@H](CC[C@H](O[C@@H]5O[C@H](CO[C@@H]6O[C@H](CO)[C@@H](O)[C@H](O)[C@H]6O)[C@@H](O)[C@H](O)[C@H]5O)C4(C)C)[C@]3(C)[C@H](O)C[C@]12C [Mogroside V]	100-300 times as sweet as sugar		
O=C1NS(=O)(=O)c2ccccc21 [Saccharine]	300 times as sweet as sugar		
CC1=CC(=O)[N-]S(=O)(=O)O1.[K+] [Acesulfame-K]	200 times as sweet as sugar		
OC[C@H]1O[C@H](O[C@]2(CCl)O[C@H](CCl)[C@@H](O)[C@@H]2O)[C@H](O)[C@@H](O)[C@H]1Cl [Sucralose]	600 times as sweet as sugar		
COC(=O)[C@H](Cc1ccccc1)NC(=O)[C@H](CC(=O)O)NCCC(C)(C)C [Neotame]	8,000 times as sweet as sugar		
COC(=O)[C@H](Cc1ccccc1)NC(=O)[C@@H](N)CC(=O)O [Aspertame] (H-Asp-Phe-OMe)	200 times as sweet as sugar		
C=C1C[C@@]23CC[C@H]4[C@@](C)(CCC[C@@]4(C)C(=O)O[C@@H]4O[C@H](CO)[C@@H](O)[C@H](O)[C@H]4O[C@@H]4O[C@H](CO)[C@@H](O)[C@H](O)[C@H]4O)[C@@H]2CC[C@]1(O[C@@H]1O[C@H](CO)[C@@H](O)[C@H](O[C@@H]2O[C@H](CO)[C@@H](O)[C@H](O)[C@H]2O)[C@H]1O[C@@H]1O[C@H](CO)[C@@H](O)[C@H](O)[C@H]1O)C3 [Rebaudioside D, rebaudioside D]	180-200 times as sweet as sugar	low	Stable solubility in aqueous solution [3]: no more than 450 ppm
C=C1C[C@@]23CC[C@H]4[C@@](C)(CCC[C@@]4(C)C(=O)O[C@@H]4O[C@H](CO)[C@@H](O)[C@H](O)[C@H]4O)[C@@H]2CC[C@]1(O[C@@H]1O[C@H](CO)[C@@H](O)[C@H](O)[C@H]1O[C@@H]1O[C@H](CO)[C@@H](O)[C@H](O)[C@H]1O)C3 [Stevioside, stevioside]	100-250 times as sweet as sugar	only sparingly soluble in water	
